Several values for one entry are separate records, joined by “and”; a condition that tells them apart may be missing. Equal entries are not always repeated.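 The compound was tested at five concentrations on cells cultured in 96-well plates, with a 48-hour exposure period. GI50: concentration for 50% inhibition of growth. TGI is the concentration that stops growth completely.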
Legend:
Assay in all cases: NCI-60 cell line screen, 48 h
BT-549 breast = system: BT-549 breast
HL-60(TB) leukemia = system: HL-60(TB) leukemia
K-562 leukemia = system: K-562 leukemia
LOX IMVI melanoma = system: LOX IMVI melanoma
NCI-H460 lung = system: NCI-H460 lung
OVCAR-8 ovarian = system: OVCAR-8 ovarian
SF-295 CNS = system: SF-295 CNS
TK-10 renal = system: TK-10 renal
UACC-257 melanoma = system: UACC-257 melanoma
UO-31 renal = system: UO-31 renal

SMILES | GI50 (BT-549 breast) | TGI (BT-549 breast) | GI50 (HL-60(TB) leukemia) | TGI (HL-60(TB) leukemia) | GI50 (K-562 leukemia) | TGI (K-562 leukemia) | GI50 (LOX IMVI melanoma) | TGI (LOX IMVI melanoma) | GI50 (NCI-H460 lung) | TGI (NCI-H460 lung) | GI50 (OVCAR-8 ovarian) | TGI (OVCAR-8 ovarian) | GI50 (SF-295 CNS) | TGI (SF-295 CNS) | GI50 (TK-10 renal) | TGI (TK-10 renal) [µM] | GI50 (UACC-257 melanoma) | TGI (UACC-257 melanoma) | GI50 (UO-31 renal) | TGI (UO-31 renal)
CCCOC(=O)N1CCN(/[N+]([O-])=N/Oc2ccc([N+](=O)[O-])cc2[N+](=O)[O-])CC1 | 3.46 µM | 11.7 µM | 0.727 µM | 8.15 µM | 0.505 µM | > 100 µM | 0.32 µM | 1.08 µM | 2.54 µM | 8.82 µM | 9.35 µM | 72.8 µM | 3.76 µM | 14.9 µM | 3.87 µM | 14.9 | 9.52 µM | 24.2 µM | 3.5 µM | 48.9 µM
CCOc1cc2ncc(C#N)c(Nc3ccc(OCc4ccccn4)c(Cl)c3)c2cc1NC(=O)/C=C/CN(C)C | 1.97 µM and 0.921 µM | 22 µM and > 7.85 µM | 0.855 µM and 0.822 µM | 12.9 µM and 2.73 µM | 1.41 µM and 0.606 µM | 3.27 µM and 3.36 µM | 0.724 µM and 0.82 µM | 2.29 µM and > 5.73 µM | 1.01 µM and 0.891 µM | 2.88 µM and > 9.38 µM | 0.28 µM and 0.339 µM | 1.65 µM and > 4.46 µM | 10.9 µM and > 4.59 µM | 34.7 µM and > 10 µM | < 0.0117 µM and 0.0127 µM | – | 1.41 µM and > 4.55 µM | 4.27 µM and > 10 µM | 0.122 µM and 0.133 µM | 1.57 µM and 2.73 µM
C/C=C(\C)C(=O)O[C@H]1C=CC(=O)O[C@@H]1CC[C@H](O)[C@H](C)O | 27.3 µM | 71.2 µM | 5.71 µM | 36.3 µM | 33 µM | > 100 µM | 27.5 µM | > 78.7 µM | > 77.3 µM | > 100 µM | 52.5 µM | > 100 µM | > 100 µM | > 100 µM | 50.6 µM | > 100 | 80.9 µM | > 100 µM | 20.5 µM | > 67.4 µM
C/C=C(/COC(C)=O)C(=O)OC1C=C(C=O)C(C)(C)C=C1C (configuration not stated) | – | > 100 µM | – | > 100 µM | – | > 100 µM | – | > 100 µM | – | > 100 µM | – | > 100 µM | – | > 100 µM | – | > 100 | – | > 100 µM | – | > 100 µM
COc1cccc(-n2ncc3c(N/N=C/c4ccncc4)ncnc32)c1 | > 25 µM | > 25 µM | 8.66 µM | > 25 µM | 0.779 µM | > 25 µM | 1.01 µM | > 25 µM | 2.57 µM | > 25 µM | 4.88 µM | > 25 µM | 1.35 µM | > 25 µM | 2.75 µM | > 25 | > 25 µM | > 25 µM | 2.45 µM | > 25 µM
Nc1nc(Nc2ccc(C3CCC(N4CCOCC4)CC3)cc2)nn1-c1ccccn1 (configuration not stated) | 2.52 µM | 6.54 µM | 2.55 µM | 9.96 µM | 2.83 µM | > 100 µM | 3.24 µM | 9.37 µM | 4.59 µM | > 69.2 µM | 11.6 µM | > 100 µM | 2.92 µM | 10.9 µM | > 21.5 µM | > 100 | 3.43 µM | 12.2 µM | 2.48 µM | > 33.7 µM
NC(=S)N/N=C/c1ncccc1N | 2.96 µM | > 100 µM | 0.867 µM | 6.45 µM and > 6.69 µM | 4.82 µM | > 93.4 µM | 0.439 µM | 8.25 µM and > 10 µM | 0.654 µM | 12.6 µM and > 10 µM | – | > 100 µM | 0.654 µM | 10.7 µM and 5.07 µM | 50.5 µM | > 100 | – | > 80.7 µM | 0.293 µM | 3.69 µM and 1.41 µM
CC#CC(=O)SCCNC(=O)CC | – | > 10 µM | – | > 10 µM | – | > 10 µM | – | > 10 µM | – | > 10 µM | – | > 10 µM | – | > 10 µM | – | > 10 | – | > 10 µM | – | > 10 µM
COc1ccc(OC)c(-c2c(C#N)c(N)nc(N3CCOCC3)c2C#N)c1 | > 100 µM | > 100 µM | > 100 µM | > 100 µM | > 100 µM | > 100 µM | > 100 µM | > 100 µM | > 100 µM | > 100 µM | 79.1 µM | > 100 µM | > 100 µM | > 100 µM | 45 µM | > 100 | 39.4 µM | > 100 µM | 46 µM | > 100 µM
O=C(/C=C/c1ccc([N+](=O)[O-])cc1)c1ccc2c3c(cccc13)CC2 | 23.6 µM | > 90.4 µM | 4.51 µM | 29 µM | 4.37 µM | > 100 µM | 4.26 µM | 17.6 µM | 4.23 µM | > 64.8 µM | 22.2 µM | > 100 µM | 6.23 µM | > 100 µM | 31.4 µM | > 75 | > 46 µM | > 94.4 µM | 10.4 µM | > 62.6 µM
COc1ccc(C(=O)c2cc3c(N)c(C(=O)Nc4cccc5ccccc45)sc3nc2C)cc1 | 0.379 µM | > 50 µM | 0.15 µM | 0.503 µM | 0.163 µM | > 50 µM | 0.287 µM | > 50 µM | 0.18 µM | > 22.5 µM | 0.285 µM | > 50 µM | 0.172 µM | > 50 µM | > 50 µM | > 50 | > 50 µM | > 50 µM | 0.422 µM | > 50 µM
Cc1ccc(S(=O)(=O)Nc2cccc3[nH]c(C(F)(F)F)nc23)cc1 | 0.62 µM | 52 µM | 0.39 µM | 17.2 µM | 0.269 µM | > 100 µM | 0.829 µM | > 100 µM | 0.398 µM | > 38.4 µM | 1.22 µM | > 47.8 µM | 0.283 µM | 1.54 µM | 2.98 µM | 61.8 | 1.32 µM | > 42 µM | 1.3 µM | > 57.5 µM
CCOc1ccccc1N=Nc1c(C)[nH]n(-c2nc(-c3ccccc3)cs2)c1=O | 29.2 µM | > 100 µM | > 100 µM | > 100 µM | > 100 µM | > 100 µM | > 100 µM | > 100 µM | 37.5 µM | > 100 µM | 29 µM | > 100 µM | 28.3 µM | > 100 µM | 43.4 µM | > 94.2 | 52.5 µM | > 100 µM | > 65.1 µM | > 100 µM
COc1ccc(C2SC(C)C(=O)N2NC(=O)C(O)c2ccccc2)cc1OC (configuration not stated) | > 100 µM | > 100 µM | > 100 µM | > 100 µM | > 100 µM | > 100 µM | > 100 µM | > 100 µM | > 100 µM | > 100 µM | > 100 µM | > 100 µM | > 100 µM | > 100 µM | > 100 µM | > 100 | > 100 µM | > 100 µM | > 100 µM | > 100 µM
COc1cc([C@H]2OC[C@H]3[C@@H]2CO[C@@H]3c2cc(OC)c3c(c2)OCO3)cc(OC)c1OC | – | > 100 µM | – | > 100 µM | – | > 100 µM | – | > 100 µM | – | > 100 µM | – | > 100 µM | – | > 100 µM | – | > 100 | – | > 100 µM | – | > 100 µM
C[CH2][Sn]([CH2]C)([O]C(=O)C(OC(C)=O)c1ccccc1)[O]C(=O)C(OC(C)=O)c1ccccc1 (configuration not stated) | 16.1 µM | 29.7 µM | 10 µM | 29.8 µM | 14.6 µM | 45.9 µM | 18.2 µM | 35.4 µM | > 100 µM | > 100 µM | > 100 µM | > 100 µM | > 100 µM | > 100 µM | 18.8 µM | 33 | 16.7 µM | 33.4 µM | 19.5 µM | 43.4 µM
COc1c(Cl)cc(NC(=S)C#N)cc1Cl | – | 39.5 µM | – | > 100 µM | – | > 100 µM | – | 38.8 µM | – | 68.2 µM | – | > 69.3 µM | – | > 79.9 µM | – | > 100 | – | 53.9 µM | – | 56.1 µM
CC1(C)[C@@H](OC(N)=O)[C@H]2O[C@H]2[C@]2(CO)[C@H]3CC[C@]4(C)[C@@H](c5ccc(=O)oc5)[C@@H](Cl)C[C@]4(O)C3=CC[C@@H]12 | 0.00695 µM | 0.0257 µM | 0.00609 µM | 0.014 µM | 0.00978 µM | 0.0547 µM | 0.00595 µM | 0.0157 µM | 0.00468 µM | 0.00997 µM | 0.00863 µM | 0.0297 µM | 0.0072 µM | 0.0264 µM | 0.00555 µM | 0.015 | 0.012 µM | 0.045 µM | 0.00645 µM | 0.0228 µM
CS[C@]12C(=O)C[C@@]3(C)[C@@H](CC[C@]3(O)C(=O)CO)[C@@H]1CCC1=CC(=O)CC[C@@]12C | – | > 100 µM | – | > 100 µM | – | > 100 µM | – | > 100 µM | – | > 100 µM | – | > 100 µM | – | > 100 µM | – | > 100 | – | > 100 µM | – | > 100 µM
CCN(CC)Cc1ccc(Nc2nccc(-c3cnn4ncccc34)n2)cc1 | 0.0377 µM | 0.139 µM | 0.00687 µM | 0.0229 µM | 0.0682 µM | > 25 µM | 0.00767 µM | > 25 µM | 0.0169 µM | 2.99 µM | 0.0133 µM | > 25 µM | 0.0311 µM | > 25 µM | 0.0236 µM | 0.188 | 0.0443 µM | 0.143 µM | 0.0114 µM | > 8.73 µM

Source: PubChem BioAssay (NCI)
